Source: ChEMBL document CHEMBL1201862, “PubChem BioAssay data set” (2004)
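All cell lines were grown in 96-well plates and treated with compound for 48 hours. GI50 = concentration required for 50% inhibition of growth.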 Calls of active or inactive are those of the source. Rule as the data show it: active = GI50 up to about 1.1 µM and inactive = higher.

Columns and labels:
Assay in all cases: NCI tumour cell line growth inhibition, 48 h
KM12 = tested on: KM12
COLO 205 = tested on: COLO 205
LOX IMVI = tested on: LOX IMVI
U-251 = tested on: U-251
MDA-N = tested on: MDA-N
RPMI-8226 = tested on: RPMI-8226
PC-3 = tested on: PC-3
OVCAR-5 = tested on: OVCAR-5
MOLT-4 = tested on: MOLT-4
BT-549 = tested on: BT-549
SN12C = tested on: SN12C
ACHN = tested on: ACHN
HOP-62 = tested on: HOP-62
786-0 = tested on: 786-0
SNB-75 = tested on: SNB-75
NCI-H226 = tested on: NCI-H226
UO-31 = tested on: UO-31
NCI-H460 = tested on: NCI-H460
OVCAR-3 = tested on: OVCAR-3
SR = tested on: SR
UACC-257 = tested on: UACC-257
SF-268 = tested on: SF-268
HCC 2998 = tested on: HCC 2998
SNB-19 = tested on: SNB-19
IGROV-1 = tested on: IGROV-1
MCF7 = tested on: MCF7
MDA-MB-231 = tested on: MDA-MB-231
HL-60 = tested on: HL-60
CAKI-1 = tested on: CAKI-1
HT-29 = tested on: HT-29
CCRF-CEM = tested on: CCRF-CEM
SK-MEL-28 = tested on: SK-MEL-28
SF-539 = tested on: SF-539
OVCAR-8 = tested on: OVCAR-8
MDA-MB-435 = tested on: MDA-MB-435
T47D = tested on: T47D
NCI-H23 = tested on: NCI-H23
K562 = tested on: K562
HOP-92 = tested on: HOP-92
NCI-H522 = tested on: NCI-H522
DU-145 = tested on: DU-145
A549 = tested on: A549
SK-OV-3 = tested on: SK-OV-3
SK-MEL-5 = tested on: SK-MEL-5
HCT-116 = tested on: HCT-116
M14 = tested on: M14
Hs-578T = tested on: Hs-578T
SK-MEL-2 = tested on: SK-MEL-2
HCT-15 = tested on: HCT-15
OVCAR-4 = tested on: OVCAR-4
SW-620 = tested on: SW-620
UACC-62 = tested on: UACC-62
Malme-3M = tested on: Malme-3M
NCI/ADR-RES = tested on: NCI/ADR-RES
RXF 393 = tested on: RXF 393
SF-295 = tested on: SF-295
TK-10 = tested on: TK-10
A498 = tested on: A498
EKVX = tested on: EKVX

Question: What does the source list for `N=C(N)c1ccc(C(NC(=O)CNS(=O)(=O)c2ccc3ccccc3c2)P(=O)(Oc2ccccc2)Oc2ccccc2)cc1` (stereo unspecified)?
Answer: GI50 (KM12): 47.4 µM (inactive); GI50 (COLO 205): > 100 µM (inactive); GI50 (LOX IMVI): 28.1 µM (inactive); GI50 (U-251): 39.4 µM (inactive); GI50 (MDA-N): 47.6 µM (inactive); GI50 (RPMI-8226): 46.3 µM (inactive); GI50 (PC-3): 37.8 µM (inactive); GI50 (OVCAR-5): 32.6 µM (inactive); GI50 (MOLT-4): 21 µM (inactive); GI50 (BT-549): 19.2 µM (inactive); GI50 (SN12C): 27.7 µM (inactive); GI50 (ACHN): > 100 µM (inactive); GI50 (HOP-62): 51.9 µM (inactive); GI50 (786-0): 36.8 µM (inactive); GI50 (SNB-75): 27 µM (inactive); GI50 (NCI-H226): 17.7 µM (inactive); GI50 (UO-31): 40.3 µM (inactive); GI50 (NCI-H460): > 100 µM (inactive); GI50 (OVCAR-3): > 100 µM (inactive); GI50 (SR): 29.4 µM (inactive); GI50 (UACC-257): > 100 µM (inactive); GI50 (SF-268): 29.8 µM (inactive); GI50 (HCC 2998): > 100 µM (inactive); GI50 (SNB-19): 47 µM (inactive); GI50 (IGROV-1): 31.8 µM (inactive); GI50 (MCF7): 54 µM (inactive); GI50 (MDA-MB-231): 41.2 µM (inactive); GI50 (HL-60): 14.2 µM (inactive); GI50 (CAKI-1): 67.5 µM (inactive); GI50 (HT-29): 98.6 µM (inactive); GI50 (CCRF-CEM): 29.8 µM (inactive); GI50 (SK-MEL-28): > 100 µM (inactive); GI50 (SF-539): 14.1 µM (inactive); GI50 (OVCAR-8): > 100 µM (inactive); GI50 (MDA-MB-435): 35.6 µM (inactive); GI50 (T47D): 65.3 µM (inactive); GI50 (NCI-H23): > 100 µM (inactive); GI50 (K562): 50 µM (inactive); GI50 (HOP-92): 29.6 µM (inactive); GI50 (NCI-H522): 41.2 µM (inactive); GI50 (DU-145): > 100 µM (inactive); GI50 (A549): 54.1 µM (inactive); GI50 (SK-OV-3): 61.9 µM (inactive); GI50 (SK-MEL-5): 39.1 µM (inactive); GI50 (HCT-116): 37.8 µM (inactive); GI50 (M14): 45.2 µM (inactive); GI50 (Hs-578T): 35.2 µM (inactive); GI50 (SK-MEL-2): > 100 µM (inactive); GI50 (HCT-15): 48.5 µM; GI50 (OVCAR-4): > 100 µM (inactive); GI50 (SW-620): 53.2 µM (inactive); GI50 (UACC-62): 44.1 µM (inactive); GI50 (Malme-3M): 68.1 µM (inactive); GI50 (NCI/ADR-RES): 69.5 µM (inactive); GI50 (RXF 393): > 100 µM (inactive)

Question: `COc1ccc2c(c1)/C(=C(\C(Cl)=C(Cl)Cl)[N+](=O)[O-])N2` was tested. Which GI50 (KM12) did it give?
Answer: > 100 µM (inactive)

Question: And the GI50 (COLO 205)?
Answer: > 100 µM (inactive)

Question: What about the GI50 (LOX IMVI) of the same compound?
Answer: 76.4 µM (inactive)

Question: And the GI50 (U-251)?
Answer: 91.2 µM (inactive)

Question: What about the GI50 (MDA-N) of the same compound?
Answer: 83.2 µM (inactive)

Question: And the GI50 (PC-3)?
Answer: 72.1 µM (inactive)

Question: What about the GI50 (OVCAR-5) of the same compound?
Answer: > 100 µM (inactive)

Question: What about the GI50 (MOLT-4) of the same compound?
Answer: 24.2 µM (inactive)

Question: What about the GI50 (BT-549) of the same compound?
Answer: 49.7 µM (inactive)

Question: What about the GI50 (SN12C) of the same compound?
Answer: > 100 µM (inactive)

Question: And the GI50 (ACHN)?
Answer: > 100 µM (inactive)

Question: What about the GI50 (HOP-62) of the same compound?
Answer: > 100 µM (inactive)

Question: And the GI50 (786-0)?
Answer: 69.8 µM (inactive)

Question: What about the GI50 (SF-295) of the same compound?
Answer: 62.4 µM (inactive)

Question: And the GI50 (SNB-75)?
Answer: 35.7 µM (inactive)

Question: And the GI50 (NCI-H226)?
Answer: 22.3 µM (inactive)

Question: And the GI50 (UO-31)?
Answer: > 100 µM (inactive)

Question: What about the GI50 (NCI-H460) of the same compound?
Answer: > 100 µM (inactive)

Question: And the GI50 (TK-10)?
Answer: > 100 µM (inactive)

Question: What about the GI50 (OVCAR-3) of the same compound?
Answer: 28.2 µM (inactive)

Question: What about the GI50 (SR) of the same compound?
Answer: 11 µM (inactive)

Question: And the GI50 (UACC-257)?
Answer: > 100 µM (inactive)

Question: And the GI50 (SF-268)?
Answer: 70.3 µM (inactive)

Question: What about the GI50 (HCC 2998) of the same compound?
Answer: > 100 µM (inactive)

Question: What about the GI50 (SNB-19) of the same compound?
Answer: > 100 µM (inactive)

Question: And the GI50 (IGROV-1)?
Answer: > 100 µM (inactive)

Question: And the GI50 (MCF7)?
Answer: > 100 µM (inactive)

Question: And the GI50 (MDA-MB-231)?
Answer: > 100 µM (inactive)

Question: And the GI50 (HL-60)?
Answer: > 100 µM (inactive)

Question: What about the GI50 (CAKI-1) of the same compound?
Answer: 90.6 µM (inactive)

Question: What about the GI50 (HT-29) of the same compound?
Answer: > 100 µM (inactive)

Question: What about the GI50 (CCRF-CEM) of the same compound?
Answer: 31.1 µM (inactive)

Question: And the GI50 (SK-MEL-28)?
Answer: > 100 µM (inactive)

Question: What about the GI50 (OVCAR-8) of the same compound?
Answer: 92.5 µM (inactive)

Question: What about the GI50 (MDA-MB-435) of the same compound?
Answer: 51.2 µM (inactive)

Question: What about the GI50 (T47D) of the same compound?
Answer: 67.3 µM (inactive)

Question: And the GI50 (A498)?
Answer: 92.7 µM (inactive)

Question: What about the GI50 (NCI-H23) of the same compound?
Answer: 87.7 µM (inactive)

Question: What about the GI50 (K562) of the same compound?
Answer: 39 µM (inactive)

Question: What about the GI50 (EKVX) of the same compound?
Answer: 26.7 µM (inactive)

Question: And the GI50 (HOP-92)?
Answer: > 100 µM (inactive)

Question: And the GI50 (NCI-H522)?
Answer: 25.3 µM (inactive)

Question: What about the GI50 (DU-145) of the same compound?
Answer: > 100 µM (inactive)

Question: And the GI50 (A549)?
Answer: > 100 µM (inactive)

Question: What about the GI50 (SK-OV-3) of the same compound?
Answer: > 100 µM (inactive)

Question: What about the GI50 (SK-MEL-5) of the same compound?
Answer: 41 µM (inactive)

Question: What about the GI50 (HCT-116) of the same compound?
Answer: > 100 µM (inactive)

Question: And the GI50 (M14)?
Answer: > 100 µM (inactive)

Question: And the GI50 (Hs-578T)?
Answer: 80.2 µM (inactive)

Question: And the GI50 (HCT-15)?
Answer: > 100 µM

Question: What about the GI50 (OVCAR-4) of the same compound?
Answer: 49.1 µM (inactive)

Question: And the GI50 (SW-620)?
Answer: 73.8 µM (inactive)

Question: And the GI50 (UACC-62)?
Answer: > 100 µM (inactive)

Question: And the GI50 (Malme-3M)?
Answer: 88.9 µM (inactive)

Question: What about the GI50 (NCI/ADR-RES) of the same compound?
Answer: 79.8 µM (inactive)

Question: And the GI50 (RXF 393)?
Answer: 39.5 µM (inactive)
